In patent US20120141448A1, “Method for increasing muscle mass and strength” (priority 2010, published 2012):

Tests used:
[1] = tested on: known non-responder to creatine supplementation; assay: Creatine non-responder MP: three-week strength training program, total body weight and total strength; format: in vivo, human; conditions: subject two
Protocol: B. patient two, 185 cm tall, also a known non-responder to creatine supplementation, followed a three-week strength training program while testing whether supplementation with PA-enriched-lecithin improves creatine response. Total starting total body weight and strength were measured on day one, followed by the training program, consisting of concentric and eccentric isotonic lifting exercises that worked the upper and lower body muscle groups with either free weights or weight machines used once or twice weekly. Strength training was performed three times per week with at least one day of rest between sessions, which alternated between lower and upper body exercises. During the three-week period, a total of […] were performed. Each exercise included two sets of ten repetitions at 40% and 65% 1RM, followed by two sets of 3 to 5 repetitions at 90% 1RM.
The lower body exercise included seven different exercises: seated leg press, leg curls, standing calf raises, leg extension, inclined leg lift, inverted situps (back extension) and 45° inclined situps. The upper body exercise consisted of seven different exercises: bench press, latissimus pulldown, triceps pulldown, inclined dumbbell curls, seated preacher curls, seated rows, and CyBec Pec Fly. Total upper and lower body weight lifted were calculated as the average weight lifted during the last three sets multiplied by the average repetition in each set. Total strength was determined as the combined lower and upper total weight lifted. […] Strength was measured on days 1 and 22.
A four-week rest period followed the first three-week training program. The same program was repeated twice, the control was supplemented with creatine monohydrate (Creapure®, Alzchem, Germany) 5 grams per day of five grams creatine monohydrate for 21 days. During the second program, creatine monohydrate was given as for the control program with the addition of 1 gram per day PA-enriched lecithin (Chemi Nutra, White Bear Lake, Minn.) which was about 50% PA.

[2] = tested on: known non-responder to creatine supplementation; assay: Creatine non-responder RJ: two-week strength training program, total body weight and total strength; format: in vivo, human; conditions: subject one
Protocol: A. patient one, 198 cm tall, a known non-responder to creatine supplementation, followed a two-week strength training program while testing whether supplementation with PA-enriched-lecithin improves creatine response. Total starting total body weight and strength were measured on day one, followed by the training program, consisting of concentric and eccentric isotonic lifting exercises that worked the upper and lower body muscle groups. Either free weights or weight machines were used once or twice weekly. Strength training was performed three times per week with at least one day of rest between sessions, which alternated between lower and upper body exercises. During the two-week period, a total of six training sessions (three upper and three lower) were performed. Each exercise included two sets of ten repetitions at 30% and 60% 1RM, followed by two sets of 3 to 5 repetitions at 90% 1RM.
The lower body exercise included seven different exercises: seated leg press, leg curls, standing calf raises, leg extensions, inclined leg lift, inverted situps (back extension) and 45° inclined situps. The upper body exercise consisted of seven different exercises: bench press, latissimus pulldown, triceps pulldown, inclined dumbbell curls, seated preacher curls, seated rows, and CyBec Pec Fly.
Total upper and lower body weight lifted were calculated as the average weight lifted during the last three sets multiplied by the average repetition in each set. Total strength was determined as the combined lower and upper total weight lifted. Total body weight was determined after day 8 and day 15. Strength was measured on days 1 and 15.
A four-week rest period followed the first two-week training program. The same program was repeated twice, the control was supplementation of creatine monohydrate (Creapure, Alzchem, Germany) 4 times 5 grams per day for five days of loading, followed by nine days of five grams creatine monohydrate. During the second program, creatine monohydrate was given as for the control program with the addition of PA-enriched lecithin (Chemi Nutra, White Bear Lake, Minn.) which was about 50% PA.

## CN(CC(=O)O)C(=N)N.O [Creatine Supplement, creatine monohydrate]
[1]; day 1 of three-week program
  weight, day 1: 81.9 kg
[1]; day 1 vs day 22
  total strength increase: 5%
[1]; day 10 of three-week program
  weight, day 10: 81.5 kg
[1]; day 22 of three-week program
  weight, day 22: 81.2 kg
[1]; three-week program
  effect on body weight: not effective in preventing a slight weight loss
[2]; day 1 of two-week program
  weight, day 1: 88.8 kg
[2]; day 1 vs day 15
  total strength increase: 5%
[2]; day 8 of two-week program
  weight, day 8: 88.3 kg
[2]; day 15 of two-week program
  weight, day 15: 88.0 kg
[2]; two-week program
  effect on body weight: not effective in preventing a slight weight loss
